According to patent US11185554B2 (priority 2016, dated 2021):

Assays:
free radicals (ROS/RNS) = tested on: free radicals (ROS/RNS); design: species or system C57BL/6J mice; settings: mouse, in vivo
EBOV = tested on: EBOV; design: species or system C57BL/6J mice; settings: mouse, in vivo
[1] = tested on: cytokines, chemokines in the peripheral blood; design: species or system C57BL/6J mice; settings: mouse, in vivo
ebola virus = tested on: ebola virus; design: species or system C57BL/6J mice; settings: mouse, in vivo
influenza = settings: mouse, in vivo; cited from earlier work
[2] = tested on: neutrophils and T cells in the peripheral blood; design: species or system C57BL/6J mice; settings: mouse, in vivo

**Q.** Which results are given for `CCCCCC/C=C\CCCCCCCCCC(=O)N[C@H]1[C@H](OC[C@H]2O[C@H](OP(=O)(O)O)[C@H](NC(=O)CC(=O)CCCCCCCCCCC)[C@@H](OCCCCCCCCCC)[C@@H]2O)O[C@H](COC)[C@@H](OP(=O)(O)O)[C@@H]1OCC[C@@H](CCCCCCC)OC` [eritoran, α-D-Glucopyranose, 3-O-decyl-2-deoxy-6-O-[2-deoxy-3-O-[(3R)-3-methoxydecyl)-6-O-methyl-2-[[(-11Z)-1-oxo-11-octadecenyl)amino]-4-O-phosphono-3-D-glucopyranosyl]-2-[(1,3-dioxotetradecyl)amino]-1-(dihydrogen phosphate)]?
**A.** reduction of free radicals (ROS/RNS) (free radicals (ROS/RNS)): 23%; reduction of viremia versus placebo (EBOV): two-logs; viremia (quantitative RT-PCR) (EBOV): 10^5 genome equivalents per mL; decrease of serum levels of leukemia inhibitory factor (LIF) [1]: 10.3 fold; increase in the production of KC [1]: 10.0 fold; increase of levels of G-CSF [1]: 7.0 fold; increase of levels of M-CSF [1]: 58%; reduction of serum IL-7 levels [1]: 41%; serum IL-6 level [1]: reduced; serum IL-9 level [1]: reduced; serum IL-10 level [1]: reduced; serum IL-13 level [1]: reduced; serum MIG level [1]: significantly decreased; serum MIP-1α level [1]: significantly decreased; serum MIP-1β level [1]: significantly decreased; serum MIP-2 level [1]: significantly decreased; serum RANTES level [1]: significantly decreased; serum TNFα level [1]: reduced; serum IP-10 level ([1]; ip): significantly decreased; protection against ebola virus challenge (ebola virus): does not protect; protection from lethal influenza challenge (influenza): protected; B-cells, NK-cells and monocytes populations [2]: no effect; absolute count of CD3+, CD3+CD4+ and CD3+CD8+ T cells [2]: further reduced; expansion of the neutrophil population (absolute counts) [2]: blocked expansion; granulocytes, absolute count [2]: 2,786 cells/μl; increase of percentages of CD4+ T cells positive for IL-4 [2]: 3.8 fold; increase of percentages of CD4 T cells positive for CD69 [2]: 2.8 fold; levels of IFNγ-secreting CD4+ T cells [2]: dramatically reduced; levels of IFNγ-secreting CD8+ T cells [2]: dramatically reduced; levels of IL-17A-secreting CD4+ T cells [2]: dramatically reduced; percentages of CD11b+Ly6G/Ly6C+ neutrophils in gated granulocytes, placebo versus eritoran [2]: no difference; percentages of neutrophils expressing activation marker CD64 [2]: significantly increased; percentages of neutrophils expressing activation marker CD69 [2]: significantly increased; ratio of CD11b+Ly6G/Ly6C+ neutrophils to CD3+ T-lymphocytes [2]: 11.05; ratio of CD11b+Ly6G/Ly6C+ neutrophils to total lymphocytes [2]: 2.15
